From EP1834952A1, “Compound for promoting the growth of neural cells” (NatureWise Biotech & Medicals Corporation, priority 2006, dated 2007)

Assays:
Format in all cases: cell-based, Wistar rat
cortical neurons [1] = assay: Survival of cortical neurons, live cell count by MTT assay (Examples 2 and 3); conditions: 300 cells/mm^2; 5 days; versus DMSO control; FIG. 2
Method: Cells obtained from the suspension prepared in Example 1 were cultivated in 6-well plates coated with 30 µg/ml of poly-D-lysine (Sigma) at 300 cells/mm^2 and cultivated at 37°C, 5% CO2 and 95% relative humidity. The growth media contained compounds A, B, D, E, F, G, and H respectively and the growth media added with 5 µl of DMSO were used as control. The differentiated cells after cultivation were categorically called cortical neurons.
The experiments were repeated three times. After cultivating for 5 days, live cells were counted by a known cell-counting method (MTT assay) and the absorbance was read at 540 nm.
(§1) Cells obtained from the suspension prepared in Example 1 were cultivated at a density of 150 or 300 cells/mm^2 in 6-well plates coated with 30 µg/ml poly-D-lysine (Sigma) at 37°C, 5% CO2 and 95% relative humidity. The growth media contained compounds A, D, and G respectively and the growth media added with 5 µl of DMSO were used as control. The differentiated cells are categorically called cortical neurons.
The experiments were repeated three times. After cultivating for 5 days, the live cells were counted by a known cell-counting method (MTT assay) and the absorbance was read at 540 nm.

cortical neurons [2] = assay: Neurite length of cortical neurons cultivated at low density, by microscope (Example 4); conditions: 38 cells/mm^2, 5 days; for growth of neurons and neurites under microscope: in the control all neural cells are dead
Method: as §1, with “38 cells/ mm^2” for “150 or 300 cells/mm^2”, “A, B,” for “A,”
The experiments were repeated three times. After cultivating for 5 days, the cells were observed under microscope and the length of the neurites was measured.

NSCs = assay: Continuous cultivation of NSCs for 30 days, morphology and later differentiation (Example 7)
Method: As in Example 1, the NSCs were cultivated continuously and the growth media were replaced every seven days. DMSO-added growth media were used as the negative control. After 30 days, 100 µl of the cell suspension was aspirated and diluted to 1 ml. 250 µl of the supernatant was aspirated and placed on the slides coated with 30 µg/ml poly-D-lysine (Sigma). The cell morphology was observed thereafter under a microscope.
Unlike the normal neural stem cells, the cells lose their propensity to aggregate and form spheres, and the cells become atrophic in the cultivating suspension. […] These cells were cultivated for another 3 days and the cells were stained with immunofluorescence the same as in Example 5.

neural stem cells = assay: Differentiation of NSCs from neurospheres, MAP-2 immunofluorescent staining (Examples 5 and 6)
Method: In the beginning of cultivating NSCs, either compound A or EGF was added into the growth media. The cells were cultivated for 3 days and the cells would aggregate to form neurospheres. One hundred µl of the cell suspension was aspirated and diluted to 1 ml. 250 µl of the supernatant which contained neurospheres was aspirated and placed on the cover slides coated with 30 µg/ml poly-D-lysine (Sigma). After all the cells had been attached onto the slides, the media was removed and replaced with the cultivating media containing compound A (FIG. 5A), EGF (FIG. 5C), or none of the growth factors (FIG. 5B, compound A in the beginning; FIG 5D, EGF in the beginning). The cells were cultivated for another 3 days at the same condition as described above so that the cells would differentiate into cortical neurons.
The cells were stained with a known immunofluorescent staining method. To stain the neurons, a neurological marker of MAP-2 (microtubule-associated protein 2) antibody was used as the primary antibody and a fluorescent material-labeled mouse immunoglobulin that identified primary antibody was used as the second antibody. After the primary antibody that had been bound onto the neurons was identified and bound by the secondary antibody, the neurons emit fluorescent light under the excitation of a specific light source.
The procedures were similar to Example 5. However, in the beginning of cultivating the neural stem cells, both compound D and EGF were added into the media. After all the cells had been attached onto the slides, the media were removed and replaced with the cultivating media containing compound D (FIG. 6B), EGF (FIG. 6C), none of the growth factors (FIG. 6D), or both compound D and EGF (FIG. 6A). The cells were cultivated for another 3 days and the cell morphology was observed thereafter by using immunofluorescent staining technique.

Compound | absorbance at 540 nm (live cells, MTT assay) (cortical neurons [1]) | length of neurites, L1 (cortical neurons [2]; 5 µM) [µm] | length of neurites, L2 (cortical neurons [2]; 5 µM) [µm] | neurites extending out of each soma (cortical neurons [2]; 5 µM) | growth of neurons and neurites under microscope (cortical neurons [2]; 5 µM) | cell morphology of NSCs after 30 days (NSCs; media replaced every seven days, almost no surviving cells in DMSO control, FIG. 7B) | differentiation of 30-day neurospheres (immunofluorescence) (NSCs; then another 3 days on slides, FIG. 7C) | differentiation of NSCs (MAP-2 staining) (neural stem cells; supplemented in the beginning (3 days) and thereafter at seeding on slides (another 3 days), FIG. 5A/5C) | differentiation of NSCs (MAP-2 staining) (neural stem cells; supplemented in the beginning only, none thereafter, FIG. 5B/5D) | length of neurites, L1 (cortical neurons [2]; 2.5 µM) [µm] | length of neurites, L2 (cortical neurons [2]; 2.5 µM) [µm] | neurites extending out of each soma (cortical neurons [2]; 2.5 µM) | growth of neurons and neurites under microscope (cortical neurons [2]; 2.5 µM) | differentiation of NSCs (MAP-2 staining) (neural stem cells; both compound D and EGF in the beginning, compound D thereafter, FIG. 6B)
CC(C)=CCC/C(C)=C/Cc1c(O)cc2c(c1O)C(=O)C[C@@H](c1ccc(O)c(O)c1CC=C(C)C)O2 [compound G] | best results | 316 | 216 | at least 3 | continuous growth of the neurons and the extension of the neurites can be observed |  |  |  |  |  |  |  |  | 
C/C(=C\Cc1c([C@@H]2CC(=O)c3c(O)cc(O)cc3O2)ccc(O)c1O)CCCC(C)(C)O [compound A] | best results |  |  |  |  | can maintain the characteristics of forming spherical clusters | differentiating normally into neurons with the continuous outgrowth of neurites | the cells will differentiate into neurons | the cells will differentiate into neurons | 236 | 161 | at least 3 | continuous growth of the neurons and the extension of the neurites can be observed | 
C/C(=C\Cc1cc([C@@H]2CC(=O)c3c(O)cc(O)cc3O2)cc(O)c1O)CCCC(C)(C)O [compound B] |  | 235 |  | at least 3 | continuous growth of the neurons and the extension of the neurites can be observed |  |  |  |  |  |  |  |  | 
CC(C)=CCC/C(C)=C/Cc1c([C@@H]2CC(=O)c3c(O)cc(O)cc3O2)ccc(O)c1O [compound D] | best results | 211 |  | at least 3 | continuous growth of the neurons and the extension of the neurites can be observed |  |  |  |  |  |  |  |  | the cells will differentiate into neurons
